What was measured:
[1] = set-up: method as in earlier work; settings: ref Ferrari et al., 2000; Lopez et al., 2009; Gorzalka et al., 2010; cited from earlier work
CB1 = settings: cited from earlier work
[2] = test system: CD1 female mouse brain lipidome; experiment: Brain-region lipid levels (HPLC/MS/MS lipidomics) 2 h after single i.p. 3 mg/kg CP 55,940 vs vehicle; type: in vivo; set-up: unit: moles per gram
Experimental: (§1) The Bloomington Institutional Animal Care and Use Committee of Indiana University reviewed and approved the animal procedures. Female mice from the CD1 strain were utilized to match our study examining THC’s effects on the brain lipidome ([Leishman et al., 2018]). Mice were given a single i.p. injection of either 3 mg/kg CP or 1:1:18 cremophor:ethanol:saline vehicle (please refer to the section “3 mg/kg CP Is Relevant for Synthetic Cannabinoid Abuse and Has Stronger Effects on the Female Mouse Brain Lipidome During Adolescence” for a justification of dose and use of female mice). Three different age groups were given injections: PND 35 and PND 50 adolescents, and adult mice (PND 113). At least eight mice in each age group received CP and at least eight received vehicle. Matching the THC study time course ([Leishman et al., 2018]), mice were sacrificed via rapid decapitation 2 h after injection. Brains were immediately removed and flash-frozen in liquid nitrogen, and then stored at -80°C until dissections were performed. Brains were dissected on an ice-cold dissection plate into the following regions: STR, HIPP, CER, THAL, CTX, HYP, MID, and STEM. These abbreviations for these brain areas will be used exclusively when discussing the results generated by these specific dissections. Each dissected area was immediately placed in liquid nitrogen and then stored at -80°C until used for lipid extraction.
Tissue extracts were performed as previously described ([Bradshaw et al., 2006]; [Stuart et al., 2013]; [Raboune et al., 2014]; [Leishman et al., 2016a],[b], [2017], [2018]). First, samples were shock frozen in liquid nitrogen, weighed, and transferred to a centrifuge tube. The mass of the largest sample was multiplied by 50 to determine how many milliliters of HPLC-grade methanol (Fisher, Fair Lawn, NJ, United States) to add. Then, samples were spiked with 500 pmol deuterium-labeled NAGly (d8NAGly; Cayman Chemical, Ann Arbor, MI, United States). Samples were placed on ice in darkness for 2 h then individually homogenized and centrifuged at 19,000 × g for 20 min at 20°C. […]
As previously described ([Bradshaw et al., 2006]; [Tan et al., 2006]; [Smoum et al., 2010]; [Stuart et al., 2013]; [Tortoriello et al., 2013]; [Raboune et al., 2014]; [Leishman et al., 2016a],[b], [2017], [2018]), samples were analyzed using an Applied Biosystems API 3000 triple quadrupole mass spectrometer with electrospray ionization (Foster City, CA, United States). […]
(§2) This screening library will be referred to as the lipidome when discussing data from this study. HPLC/MS/MS data were analyzed using Analyst software (Applied Biosystems) ([Bradshaw et al., 2006]; [Tan et al., 2006]; [Stuart et al., 2013]; [Tortoriello et al., 2013]; [Raboune et al., 2014]; [Leishman et al., 2016a],[b], [2017], [2018]). […]

rats [3] = test system: rats; set-up: method as in McGregor et al., 1996; settings: acute injection of 0.1 mg/kg, ref McGregor et al., 1996; cited from earlier work
CB2 = test system: CB2; set-up: method as in Felder et al., 1995; settings: ref Felder et al., 1995; read-out: IC50, inhibition of adenylate cyclase at CB2; cited from earlier work
rats [4] = test system: rats; set-up: method as in Higuera-Matas et al., 2010; settings: ref Higuera-Matas et al., 2010, cited from earlier work
[5] = test system: CD1 female mouse brain lipidome; experiment: Brain-region lipid levels (HPLC/MS/MS lipidomics) 2 h after single i.p. 3 mg/kg CP 55,940 vs vehicle; type: in vivo
Experimental: as §1
Tissue extracts were performed as previously described ([Bradshaw et al., 2006]; [Stuart et al., 2013]; [Raboune et al., 2014]; [Leishman et al., 2016a],[b], [2017], [2018]). First, samples were shock frozen in liquid nitrogen, weighed, and transferred to a centrifuge tube. The mass of the largest sample was multiplied by 50 to determine how many milliliters of HPLC-grade methanol (Fisher, Fair Lawn, NJ, United States) to add. Then, samples were spiked with 500 pmol deuterium-labeled NAGly (d8NAGly; Cayman Chemical, Ann Arbor, MI, United States). Samples were placed on ice in darkness for 2 h then individually homogenized and centrifuged at 19,000 × g for 20 min at 20°C. Supernatants were diluted with HPLC water (purified in house) to make a solution of 75% water, 25% supernatant. Lipids were partially purified on C18 solid phase extraction columns (Agilent, Palo Alto, CA, United States). A series of four elutions with 1.5 mL of 60%, 75%, 85%, and 100% methanol were collected ([Stuart et al., 2013]; [Leishman et al., 2016a],[b], [2018]).
As previously described ([Bradshaw et al., 2006]; [Tan et al., 2006]; [Smoum et al., 2010]; [Stuart et al., 2013]; [Tortoriello et al., 2013]; [Raboune et al., 2014]; [Leishman et al., 2016a],[b], [2017], [2018]), samples were analyzed using an Applied Biosystems API 3000 triple quadrupole mass spectrometer with electrospray ionization (Foster City, CA, United States). Using an Agilent XDB-C18 reversed phase analytical column and optimized mobile phase gradients, 20 μL from each elution were chromatographed. Two Shimadzu 10ADvp pumps (Columbia, MD, United States) provided the pressure for gradient elution. Mobile phase A: 20% methanol, 80% water (v/v) and 1 mM ammonium acetate (Sigma, St. Louis, MO, United States). Mobile phase B: 100% methanol, 1 mM ammonium acetate. Every method run began with 0% mobile phase B, reached 100% mobile phase B flowing at 0.2 mL/min, and gradually returned to 0% mobile phase B.
as §2, with “[2018]). Chromatograms (Supplementary Figure 3) were generated by determining the retention time of analytes from the analytical column with a [M-1] or [M+1] parent peak and a fragmentation peak corresponding to the programmed values.” for “[2018]).”

SMILES: CCCCCCC(C)(C)c1ccc([C@@H]2C[C@H](O)CC[C@H]2CCCO)c(O)c1 [CP 55,940]
- doses attenuating social motivation [1]: over 0.4 mg/kg
- potency relative to THC (CB1; cannabinoid receptors, ref Showalter et al., 1996, Besnard et al., 2012): ~10 fold
- EC50 (CB1; ref Brents et al., 2011, read-out: EC50, stimulated G-protein binding at CB1): 3.4 nM
- PGF2α level, Mean ([2]; cerebellum, PND 50 female mice, 3 mg/kg CP 55,940): 6.11E-11
- PGF2α level, Mean ([2]; hypothalamus, PND 35 adolescent female mice, 3 mg/kg): 3.47E-10
- PGF2α level, Mean ([2]; midbrain, PND 35 WT adolescent female mice, 3 mg/kg): 5.59E-10
- PGF2α level, Mean ([2]; thalamus, PND 50 female mice, 3 mg/kg CP 55,940): 1.3E-10
- DAT in the caudate-putamen (rats [4]; rats, CP during adolescence): upregulated
- dopamine D2 receptor levels in the HIPP (rats [4]; rats, CP during adolescence): decreased
- PGF2α level, Mean ([5]; adult cortex, 3mg/kg CP 55,940): 2.77E-10
- PGF2α level, Mean ([5]; adult female mice, brainstem, 3mg/kg CP 55,940): 1.69E-10
- PGF2α level, Mean ([5]; adult hypothalamus, 3 mg/kg CP 55,940): 2.18E-10
- PGF2α level, Mean ([5]; adult midbrain, 3mg/kg CP 55,940): 2.91E-10
- PGF2α level, Mean ([5]; brainstem, PND 50, 3 mg/kg CP 55,940): 1.26E-10
- PGF2α level, Mean ([5]; cerebellum, WT adult female mice, 3mg/kg CP 55,940): 2.22E-10
- PGF2α level, Mean ([5]; cerebellum, PND35 WT female mice, 3mg/kg CP 55,940): 3.05E-10
- PGF2α level, Mean ([5]; cortex, PND 50 female mice, 3mg/kg CP 55,940): 1.71E-10
- PGF2α level, Mean ([5]; cortex, PND 35 adolescent female mice, 3 mg/kg CP 55,940): 3.11E-10
- PGF2α level, Mean ([5]; hippocampus, adult, 3 mg/kg CP 55,940): 3.25E-10
- PGF2α level, Mean ([5]; hippocampus, PND 35 WT female mice, 3mg/kg CP 55,940): 9.18E-10
- PGF2α level, Mean ([5]; hypothalamus, PND 50 female mice, 3mg/kg CP 55,940): 1.35E-10
- PGF2α level, Mean ([5]; midbrain, PND 50 female mice, 3mg/kg CP 55,940): 1.57E-10
- PGF2α level, Mean ([5]; striatum, adult, 3 mg/kg CP 55,940): 2.43E-10
- PGF2α level, Mean ([5]; thalamus, WT adult female mice, 3mg/kg CP 55,940): 2.22E-10
- PGF2α level, Mean ([5]; thalamus, PND 35 adolescent female mice, 3 mg/kg CP 55,940): 5.11E-10

Source: PMC6277767, “Broad and Region-Specific Impacts of the Synthetic Cannabinoid CP 55,940 in Adolescent and Adult Female Mouse Brains” (Frontiers in Molecular Neuroscience, 2018)
